Test results reported in US7252950B1, “Assays for detecting modulators of cytoskeletal function” (priority 1997, dated 2007).

Tests used:
[1] = target: T1, microtubule stimulated ATPase of kinesin (Drosophila melanogaster, UniProt P17210); assay: Microtubule-stimulated kinesin ATPase, steady state kinetics; type: biochemical
T1 construct: kinesin heavy chain fragment containing amino acids 5-351 of the wild type protein; hexahistidine (C); made in house; host or cells: bacterial cells (IPTG induced)
T1 sequence (P17210 5-351): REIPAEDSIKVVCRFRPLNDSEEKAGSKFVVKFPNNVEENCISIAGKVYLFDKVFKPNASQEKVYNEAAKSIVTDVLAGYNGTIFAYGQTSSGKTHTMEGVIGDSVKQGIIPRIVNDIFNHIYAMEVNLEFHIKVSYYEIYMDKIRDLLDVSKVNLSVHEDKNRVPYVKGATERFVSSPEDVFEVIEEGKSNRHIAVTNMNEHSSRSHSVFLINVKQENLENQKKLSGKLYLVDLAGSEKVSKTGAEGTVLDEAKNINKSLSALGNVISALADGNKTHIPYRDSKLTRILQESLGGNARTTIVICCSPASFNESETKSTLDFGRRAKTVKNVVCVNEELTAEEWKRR
Description: (§1) All kinetic and binding measurements were performed on a bacterially expressed Drosophila kinesin heavy chain fragment containing amino acids 5-351 of the wild type protein and a hexahistidine tag at the C-terminus. Protein was purified from the soluble fraction of IPTG induced bacterial cells by a single round of affinity chromatography on Ni—NTA-agarose (Qiagen), concentrated by microfiltration, and frozen in small aliquots in liquid nitrogen.
(§2) Initial rate measurements were done at room temperature using a malachite green assay (Geladopoulos et al. (1991) Anal. Biochem., 192: 112-116) modified to work in 96 well microtiter plates and scored on a plate reader at 650 nm. ATP concentration dependence and basal ATPase rate were determined by a coupled enzymatic assay with pyruvate kinase and lactate dehydrogenase monitoring changes in absorbance at 340 nm. Phosphate standards (650 μM-7 μM) were included with each reading.
Extracts from 268 marine sponges were initially tested for their ability to disrupt normal behavior of microtubules in a gliding motility assay. This screening method allowed immediate distinction between substances that affected microtubule movement and those that caused microtubule depolymerization or breakage. Active extracts from the initial screening were then tested for inhibition of the microtubule-stimulated kinesin ATPase.

Myosin II (EDTA) = assay: ATPase activity assay, specificity panel (EDTA activated ATPase); type: biochemical; settings: read-out: Concentration causing 50% inhibition of enzymatic activity (C50)
Description: (§3) One such ATPase assay is described in the examples below. In one preferred embodiment, the ATPase activity assay utilizes 0.3 M PCA (perchloric acid) and malachite green reagent (8.27 mM sodium molybdate II, 0.33 mM malachite green oxalate, and 0.8 mM Triton X-100). To perform the assay, 10 μL of reaction is quenched in 90 μl of cold 0.3 M PCA. Phosphate standards are used so data can be converted to mM inorganic phosphate released.
(§4) When all reactions and standards have been quenched in PCA, 100 μl of malachite green reagent is added to the to relevant wells in e.g., a microtiter plate. The mixture is developed for 10-15 minutes and the plate is read at an absorbance of 650 nm. If phosphate standards were used, absorbance readings can be converted to mM Pi and plotted over time.
[…]

[2] = target: T2, kinesin binding to microtubules (Drosophila melanogaster, UniProt P17210); assay: Kinesin-microtubule co-sedimentation assay with AMP-PNP; settings: co-sedimentation in the presence of AMP-PNP
T2 construct: kinesin heavy chain fragment containing amino acids 5-351 of the wild type protein; hexahistidine (C); made in house; host or cells: bacterial cells (IPTG induced)
T2 sequence (P17210 5-351): T1 sequence (P17210 5-351)
Description: as §1
This was tested by performing a kinesin-microtubule co-sedimentation assay in the presence of a nonhydrolysable ATP analog, AMP-PNP, with or without adociasulfate.

basal kinesin ATPase = target: T3, basal kinesin ATPase (Drosophila melanogaster, UniProt P17210); assay: Basal (non microtubule-stimulated) kinesin ATPase rate, coupled enzymatic assay; type: biochemical; settings: absence of microtubules; up to 136 μM (the highest tested)
T3 construct: kinesin heavy chain fragment containing amino acids 5-351 of the wild type protein; hexahistidine (C); made in house; host or cells: bacterial cells (IPTG induced)
T3 sequence (P17210 5-351): T1 sequence (P17210 5-351)
Description: as §1, §2
In contrast, varying the ATP concentration had no effect on the overall shape of the kinetic curves. […] An additional argument against adociasulfate binding at the nucleotide pocket comes from the lack of an inhibitory effect on the basal, non microtubule-stimulated rate of the kinesin ATPases. If adociasulfate interfered with nucleotide binding, or locked the enzyme in a particular nucleotide-bound state, ATP turnover in the absence of microtubule should be decreased.

rabbit kidney ATPase = assay: ATPase activity assay, specificity panel; type: biochemical; settings: highest used inhibitor concentration 136 μM, read-out: Concentration causing 50% inhibition of enzymatic activity (C50)
Description: as §3, §4
[…]

TI-γ = assay: ATPase activity assay, specificity panel; type: biochemical, Thermomyces lanuginosus; settings: at 2 μM tubulin, read-out: Concentration causing 50% inhibition of enzymatic activity (C50)
Description: as §3, §4
TI-γ (a kinesin superfamily member from the fungus Thermomyces lanuginosus) was adsorbed to a glass coverslip and supplemented with a mixture of microtubules, 2 mM Mg-ATP, and sponge extracts in DMSO (5% final concentration). Motility was scored visually on a Zeiss Axioplan microscope sat up for DIC and fitted with an Argus 10 video processor (Hamamatsu).
Initial rate measurements were done at room temperature using a malachite green assay (Geladopoulos et al. (1991) Anal. Biochem., 192: 112-116) modified to work in 96 well microtiter plates and scored on a plate reader at 650 nm. […]

kinesin (K-ADP state) = target: T4, kinesin (K-ADP state) (Drosophila melanogaster, UniProt P17210); assay: ADP release from kinesin; type: biochemical; settings: varying concentrations of adociasulfate
T4 construct: kinesin heavy chain fragment containing amino acids 5-351 of the wild type protein; hexahistidine (C); made in house; host or cells: bacterial cells (IPTG induced)
T4 sequence (P17210 5-351): T1 sequence (P17210 5-351)
Description: as §1
The percent of ADP released from the enzyme was determined by the methods of Hackney (see, e.g., Hackney (1994) J. Biol. Chem., […]: 16508-16511). Briefly, 80 μM kinesin was preincubated with α-^32PATP at room temperature for 15 min and than stored on ice. 1 μl aliquots of that mixture were diluted into 100 μl of “chase mix” containing 0.5 mg/ml pyruvate kinase, 2 mM phosphoenalpyruvate, and varying concentrations of adociasulfate. […] The amount of ADP that became accessible to pyruvate kinase and was converted to ATP was determined by a thin layer chromatography on PEI-cellulose followed by phosphoimager quantitation.
Microtubule binding to kinesin induced 1,000-fold stimulation of the basal ATPase rate, owing primarily to accelerated ADP release. […] The adociasulfate concentration at 50% of maximum burst is much higher than the K1 determined in steady state microtubule competition assays. […]

## CC1(C)CCC[C@]2(C)O[C@H]3CC[C@@]4(C)[C@@H](CC[C@]5(C)[C@@H]4CC[C@]4(C)c6c(OS(=O)(=O)O)ccc(OS(=O)(=O)O)c6C[C@@H]54)[C@]3(C)CC[C@@H]12 [adociasulfate]
[1]; steady state kinetic measurements, varying microtubule concentration
  Mode of inhibition: competitive with microtubules
[1]; varying ATP concentration, higher adociasulfate concentrations
  Vmax: progressively lower
Myosin II (EDTA)
  IC50: 75 µM
[2]
  Effect on binding of kinesin to microtubules: abolished binding of kinesin to microtubules
Basal kinesin ATPase
  Effect on basal ATPase rate: did not inhibit the basal ATPase rate
Rabbit kidney ATPase
  IC50: > 136 µM
TI-γ
  IC50: 2 µM
Kinesin (K-ADP state)
  ADP release from kinesin: bursts of ADP release were observed
